“And” between values parts separate entries of the source, which are not always exact repeats. Identical values can stand only once.
Test system: 317291-083-R-J1-PDC complex spheroids, viability
Test: Anticancer human tumor 317291-083-R-J1-PDC patient-derived soft tissue sarcoma cell line growth inhibition [GQUAD]
Conditions: for viability, T/C: stronger effect = lower value
Description: DNA G-quadruplex Stabilizer Agents in Combinations in Complex Spheroids
A high-throughput screen of multi-cell type tumor spheroids was designed to identify active combinations of DNA G-quadruplex stabilizer agents and targeted small molecules. Complex spheroids include a stromal component modeled by human endothelial cells (HUVEC) and fibroblasts modeled by human mesenchymal stem cells (MSCs). The concentration ranges selected for each drug and investigational agent were based upon clinically achievable concentrations if the clinical Cmax of the agent was known.
Compounds. The drugs and investigational agents: pidnarulex (CX-5461; NSC782164), APTO-253 (NSC789042), BRACO-19 (NSC847499), peposertib (NSC802822), ceralasertib (NSC780249), elimusertib (NSC800525), camonsertib (NSC841442), AZD-1390 (NSC803789), olaparib (NSC753686), talazoparib (NSC767125), ART-558 (NSC835418), sotorasib (NSC818433), MRTX-1133 (NSC836407), SN-38 (NSC673596), topotecan (NSC609699), etoposide (NSC141540), doxorubicin (NSC123127), gemcitabine (NSC613327), 5-fluorouracil (NSC19893), paclitaxel (NSC125973), vemurafenib (NSC761431), panobinostat (NSC761190), R-306465 (JNJ-16241199; NSC773264), adavosertib (NSC754352), TP-3654 (NSC805149), carboplatin (NSC241240), KSQ-4279 (NSC840948), and staurosporine (NSC755774) were obtained from the National Cancer Institute (NCI) Developmental Therapeutics Program Chemical Repository (34). The FDA-approved anticancer drug set is available from the NCI Developmental Therapeutics Program. […] The stock solutions were prepared in dimethyl sulfoxide (DMSO, Sigma-Aldrich, St. Louis, MO, cat. D2650) at 800-fold the tested concentration and stored at -70 degrees C prior to their use. All drugs and investigational agents were tested over a range starting from a high concentration at or near the clinical Cmax and decreasing in half-log increments. If the clinical Cmax for an agent had not been determined, the highest concentration tested was 10 microM.
2.3 Cell Culture. All cells were maintained in an incubator at 37 degrees C and 5% CO2 with 95% humidity. The PDC lines were cultured according to standard operating procedures established by the NCI PDMR. All PDCs were thawed and cultured in Matrigel-coated flasks prepared with a working solution of 1X Ham's F-12 nutrient mix, without supplementation (Invitrogen, cat. 11765054), 100 U/mL penicillin-streptomycin (Invitrogen, cat. 15140122), and 2.5% Matrigel (Corning Inc., cat. 354248) for the first three passages. The 857933-349-R-J2-PDC line was cultured in 6C/Colon 1B media, which includes advanced DMEM/F-12 (Thermo Fisher Scientific, cat. 12634028), 10 mM HEPES (Thermo Fisher Scientific, cat. 15630080), 1X GlutaMAX supplement (Thermo Fisher Scientific, cat. 35050061), 0.1 mg/mL primocin (InvivoGen, cat. ant-pm-2), 10% defined fetal bovine serum, heat inactivated (HyClone Laboratories Inc., cat. SH30070.03HI), 50% L-WRN conditioned media (ATCC, cat. CRL-3276), 1.25 mM N-Acetyl-L-cysteine (Sigma-Aldrich, cat. A9165), 10 mM nicotinamide (Sigma-Aldrich, cat. N0636), 1X B-27 supplement (Thermo Fisher Scientific, cat. 17504044), 1X N-2 supplement (Thermo Fisher Scientific, cat. 17502048), 10 microM Y-27632 dihydrochloride (Tocris Bioscience, cat. 1254), and 50 ng/mL human EGF recombinant protein (Thermo Fisher Scientific, cat. PHG0311). The 485176-168-R4-J1-PDC line was cultured in Panc media, which includes all 6C/Colon 1B media components plus 100 ng/mL human FGF-10 (Thermo Fisher Scientific, cat. 100-26), 500 nM SB-431542 (Selleckchem, cat. S1067), and gastrin (Tocris, cat. 3006).
[…]
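Also: spheroids exposed to compounds for one week before readout.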
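For viability, T/C in this document: percent viability relative to DMSO vehicle wells taken as 100%.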

With `CC1COCCN1c1cc(C2(S(C)(=N)=O)CC2)nc(-c2ccnc3[nH]ccc23)n1` (stereo unspecified) the viability, T/C (compound 0.0316 µM) was 88.1% and 103% and 100%, the viability, T/C (compound 0.1 µM) was 104% and 90.7% and 106% and the viability, T/C (compound 0.316 µM) was 91.8% and 90.3% and 101%. The viability, T/C (compound 1 µM) was 50.2% and 61.5% and 87%, the viability, T/C (compound 3.16 µM) was 23.9% and 23.1% and 24.4% and the viability, T/C (compound 10 µM) was 13.9% and 18.3% and 13.1%. For the same compound, the IC50 (curve of compound) was 1050 nM and 1400 nM and 1980 nM.

`Cc1cnc(CNC(=O)c2c(=O)c3ccc(N4CCCN(C)CC4)nc3n3c2sc2ccccc23)cn1` was tested, and the viability, T/C (compound 0.0316 µM) was 93.8% [middle of 12 runs], the viability, T/C (compound 0.1 µM) was 68.8% [middle of 12 runs] and the viability, T/C (compound 1 µM) was 31.6% [middle of 12 runs].

`CCc1c2c(nc3ccc(O)cc13)-c1cc3c(c(=O)n1C2)COC(=O)[C@]3(O)CC` was tested, and the viability, T/C (compound 0.000999 µM) was 67.6% and 68.7% and 66.8%, the viability, T/C (compound 0.00316 µM) was 24.9% and 26.7% and 19.9% and the viability, T/C (compound 0.00999 µM) was 13% and 18.2% and 10.6%. For the same compound, the viability, T/C (compound 0.0316 µM) was 12.7% and 11.9% and 9.88%, the viability, T/C (compound 0.0999 µM) was 8.64% and 6.96% and 7.26% and the viability, T/C (compound 0.316 µM) was 4.6% and 5.68% and 4.03%. For the same compound, the IC50 (curve of compound) was 1.61 nM and 1.72 nM and 1.51 nM.

For `CC(C)n1c(=O)n(C)c2cnc3cc(F)c(-c4ccc(OCCCN5CCCCC5)nc4)cc3c21`, the viability, T/C (compound 0.0316 µM) was 104% and 95.2% and 133%, the viability, T/C (compound 0.1 µM) was 94% and 71.9% and 96.8% and the viability, T/C (compound 0.316 µM) was 103% and 92.6% and 102%. For the same compound, the viability, T/C (compound 1 µM) was 106% and 94.4% and 105%, the viability, T/C (compound 3.16 µM) was 81.3% and 74.1% and 100% and the viability, T/C (compound 10 µM) was 44.8% and 39.7% and 45.3%. The IC50 (curve of compound) was 8470 nM and 7090 nM and 9180 nM.

`CC1COCCN1c1cc(C2(O)CC3CCC(C2)O3)c2cnn(-c3ccn[nH]3)c2n1` (stereo unspecified) + Cc1cnc(CNC(=O)c2c(=O)c3ccc(N4CCCN(C)CC4)nc3n3c2sc2ccccc23)cn1 gave an IC50 (curve of first compound, second compound 0.0316 µM) of under 31.6 nM, an IC50 (curve of first compound, second compound 0.1 µM) of under 31.6 nM and an IC50 (curve of first compound, second compound 0.316 µM) of under 31.6 nM. The IC50 (curve of first compound, second compound 1 µM) was under 31.6 nM, the IC50 (curve of first compound, second compound 3.16 µM) was under 31.6 nM and the IC50 (curve of first compound, second compound 10 µM) was under 31.6 nM. For the same compound, the viability, T/C (second compound 0.0316 µM, first compound 0.0316 µM) was 32.1%, the viability, T/C (second compound 0.0316 µM, first compound 0.1 µM) was 22.9% and the viability, T/C (second compound 0.0316 µM, first compound 0.316 µM) was 11.1%. It also gave a viability, T/C (second compound 0.0316 µM, first compound 1 µM) of 10.5%, a viability, T/C (second compound 0.0316 µM, first compound 3.16 µM) of 13% and a viability, T/C (second compound 0.0316 µM, first compound 10 µM) of 3.33%. For the same compound, the viability, T/C (second compound 0.1 µM, first compound 0.0316 µM) was 25.9%, the viability, T/C (second compound 0.1 µM, first compound 0.1 µM) was 22.6% and the viability, T/C (second compound 0.1 µM, first compound 0.316 µM) was 10.6%. For the same compound, the viability, T/C (second compound 0.1 µM, first compound 1 µM) was 11.6%, the viability, T/C (second compound 0.1 µM, first compound 3.16 µM) was 28.6% and the viability, T/C (second compound 0.1 µM, first compound 10 µM) was 2.82%. The viability, T/C (second compound 0.316 µM, first compound 0.0316 µM) was 18.4%, the viability, T/C (second compound 0.316 µM, first compound 0.1 µM) was 16.2% and the viability, T/C (second compound 0.316 µM, first compound 0.316 µM) was 26.7%. The viability, T/C (second compound 0.316 µM, first compound 1 µM) was 11.9%, the viability, T/C (second compound 0.316 µM, first compound 3.16 µM) was 11.1% and the viability, T/C (second compound 0.316 µM, first compound 10 µM) was 2.89%. The viability, T/C (second compound 1 µM, first compound 0.0316 µM) was 25.6%, the viability, T/C (second compound 1 µM, first compound 0.1 µM) was 18.5% and the viability, T/C (second compound 1 µM, first compound 0.316 µM) was 12.9%. It also gave a viability, T/C (second compound 1 µM, first compound 1 µM) of 12.1%, a viability, T/C (second compound 1 µM, first compound 3.16 µM) of 11.7% and a viability, T/C (second compound 1 µM, first compound 10 µM) of 5.12%. For the same compound, the viability, T/C (second compound 3.16 µM, first compound 0.0316 µM) was 14.8%, the viability, T/C (second compound 3.16 µM, first compound 0.1 µM) was 14.6% and the viability, T/C (second compound 3.16 µM, first compound 0.316 µM) was 11.1%. It also gave a viability, T/C (second compound 3.16 µM, first compound 1 µM) of 12.7%, a viability, T/C (second compound 3.16 µM, first compound 3.16 µM) of 15.6% and a viability, T/C (second compound 3.16 µM, first compound 10 µM) of 0.73%. For the same compound, the viability, T/C (second compound 10 µM, first compound 0.0316 µM) was 12.7%, the viability, T/C (second compound 10 µM, first compound 0.1 µM) was 9.14% and the viability, T/C (second compound 10 µM, first compound 0.316 µM) was 16.9%. For the same compound, the viability, T/C (second compound 10 µM, first compound 1 µM) was 24.7%, the viability, T/C (second compound 10 µM, first compound 3.16 µM) was 12.1% and the viability, T/C (second compound 10 µM, first compound 10 µM) was 2.17%.
